# Experimental data as given in PMC3292407 (The Journal of Neuroscience, 2012).
# “And” between values parts separate entries of the source, which are not always exact repeats. Identical values can stand only once. Like-named read-outs stand apart in the source and are kept apart here.
# Assays:
# GABAAR α4 subunit [1] = assay: Western blot of total GABAAR α4 subunit in hippocampus 48 hr after withdrawal; format: in vivo, rat
# [2] = Plasma [EtOH] assay of two-bottle choice; format: in vivo, rat; conditions: E+D/water-group vs E/water-group, end of the 6th week
# rats [3] = format: in vivo, rat; conditions: for EtOH consumption: 20% EtOH/water (E/water-group)
# rats [4] = assay: Pentylenetetrazol; format: in vivo, rat; conditions: PTZ 42 mg/kg
# GABAARs [5] = format: cell-based, rat
# rats [6] = assay: Loss of Righting Reflex
# GABAARs [7] = format: in vivo, rat; conditions: for Decay time / Frequency (HZ) / Rise time: baseline mIPSCs; for Itonic (pA) / mIPSC amplitude (pA) / mIPSC area (fC): baseline
# [8] = Plasma EtOH concentrations; format: in vivo, rat
# rats [9] = assay: Elevated-plus maze; format: in vivo, rat
# GABAAR α4 subunit [10] = format: cell-based, rat
# GABAARs [11] = format: cell-based, rat; conditions: for Itonic (pA) / mIPSC amplitude (pA) / mIPSC area (fC) / Decay time / Frequency (HZ) / Rise time: DGCs of naive rats; for Decay time / Frequency (HZ) / Rise time: mIPSCs
# [12] = 48 hr after DHM 1 mg/kg i.p. alone (D/W)
# [13] = 48 hr withdrawal after EtOH 3 g/kg + DHM 1 mg/kg i.p. (E+D/W)
# [14] = DHM 1 μM, cultured hippocampal neurons DIV13-14
# [15] = DHM 0.3, 0.5, 1, 10 mg/kg co-injected i.p. with EtOH 3 g/kg
# [16] = D/W: 48 hr after DHM 1 mg/kg gavage
# [17] = E+D/W: 48 hr after EtOH 5 g/kg + DHM 1 mg/kg gavage
# [18] = DHM 3 μM in presence of EtOH 60 mM
# [19] = E/W: 48 hr after EtOH 5 g/kg gavage
# [20] = bath EtOH 60 mM, DGCs of V/W-group rats
# [21] = bath EtOH 60 mM, DGCs, naive rats
structure (smiles),measurement,setting,value
"O=C1c2c(O)cc(O)cc2O[C@H](c2cc(O)c(O)c(O)c2)[C@H]1O [DHM, (2R,3R)-3,5,7-trihydroxy-2-(3,4,5-trihydroxyphenyl)-2,3-dihydrochromen-4-one]",Effect on total α4 subunit level,GABAAR α4 subunit [1]; hippocampus 48 hr after DHM 1 mg/kg i.p. alone (D/W),had no effect on α4 subunit level
same,Total α4 protein level,GABAAR α4 subunit [1]; hippocampus 48 hr after EtOH 3 g/kg + DHM 1 mg/kg i.p. (E+D/W),93.0 ± 21.0 % of control
same,Plasma [EtOH],[2],significantly lower
same,Preference to bottle containing E+D,"rats [3]; E+D/water-group, 3rd vs 7th week",did not change this preference
same,EtOH intake,"rats [3]; EtOH+DHM 0.05 mg/ml/water (E+D/water-group), beginning of the 4th week",2.6 ± 0.5 g/kg/day
same,Total fluid consumption,"rats [3]; between the 4 groups (E/water, E+D/water, D/water, water/water)",no significant differences in total fluid consumption
same,Body weight,rats [3]; between the 4 groups at the end of the experiments,no significant difference in body weight
same,PTZ-induced seizure duration,rats [4]; [12],0.6 ± 0.4 min
same,PTZ-induced seizure duration,rats [4]; [13],1.7 ± 0.8 min
same,Itonic potentiation,GABAARs [5]; [14],194.9 ± 13.6 % of baseline
same,mIPSC area potentiation,GABAARs [5]; [14],181.8 ± 9.2 % of baseline
same,Effect on GABA concentration-response curve of GABAAR-currents,"GABAARs [5]; DHM 0.3 and 1 μM co-applied with GABA, TTX present, DIV14",produced a left shift of the GABA concentration-response curve
same,Acute EtOH-induced LORR (tolerance),rats [6]; 48 hr withdrawal after DHM 1 mg/kg i.p. alone (D/W),65.6 ± 8.4 min
same,Acute EtOH-induced LORR (tolerance),rats [6]; [13],61.0 ± 3.8 min
same,LORR duration,rats [6]; DHM 1 mg/kg 30 min prior to EtOH injection (D1+E),8.2 ± 4.1 min
same,LORR duration,rats [6]; DHM 1 mg/kg co-injected i.p. with EtOH 4 g/kg (E4+D1),28.2 ± 4.0 min
same,LORR induction,rats [6]; DHM 1 mg/kg i.p. alone (D1),did not induce LORR
same,LORR duration,rats [6]; DHM 3 mg/kg co-injected with EtOH 3 g/kg (E3+D3),2.7 ± 1.7 min
same,LORR duration,rats [6]; DHM 100 mg/kg i.p. alone (D100),2.9 ± 1.3 min
same,Effect on duration of EtOH-induced LORR,rats [6]; [15],dose-dependently reduced LORR
same,Effect on onset of EtOH-induced LORR,rats [6]; [15],dose-dependently increased LORR onset
same,LORR duration,rats [6]; DHM 300 mg/kg i.p. alone (D300),9.8 ± 4.3 min
same,Remaining LORR after the 30 min time point,rats [6]; DHM injected 30 min after EtOH,19 ± 1.0 min
same,Decay time,GABAARs [7]; [16],7.9 ± 1.2 ms
same,Frequency (HZ),GABAARs [7]; [16],13.2 ± 1.3 HZ
same,Rise time,GABAARs [7]; [16],2.2 ± 0.3 ms
same,Decay time,GABAARs [7]; [17],7.1 ± 0.6 ms
same,Frequency (HZ),GABAARs [7]; [17],12.4 ± 0.5 HZ
same,Rise time,GABAARs [7]; [17],1.8 ± 0.3 ms
same,Itonic (pA),GABAARs [7]; [16],24.3 ± 2.9 pA
same,mIPSC amplitude (pA),GABAARs [7]; [16],28.5 ± 3.0 pA
same,mIPSC area (fC),GABAARs [7]; [16],621.5 ± 68.5 fC
same,Itonic (pA),GABAARs [7]; [17],30.0 ± 2.8 pA
same,mIPSC amplitude (pA),GABAARs [7]; [17],26.2 ± 2.1 pA
same,mIPSC area (fC),GABAARs [7]; [17],666.8 ± 34.1 fC
same,mIPSC modulation by acute EtOH,"GABAARs [7]; bath EtOH 60 mM, DGCs of E+D/W-group rats",mIPSC modulation was unchanged
same,Effect on plasma [EtOH],"[8]; DHM 10 mg/kg with EtOH 3 g/kg, significant at 30 min, not at 60 min",slightly decreased [EtOH]
same,Rise time of plasma [EtOH],"[8]; DHM 1, 10 mg/kg with EtOH 3 g/kg",the rise time of plasma [EtOH] was slowed at early time
same,Time in open and closed arms (EPM),rats [9]; [12],did not affect the time rats spent in either arm
same,Time in open and closed arms (EPM),"rats [9]; 48 hr withdrawal after EtOH 3 g/kg + DHM 1 mg/kg i.p. (E+D/W), vs V/W-group",spent similar times
same,Effect on EtOH-induced increase in surface GABAAR α4,GABAAR α4 subunit [10]; cultured neurons 24 hrs after EtOH 60 mM + DHM 0.1 μM (E+D),prevented this increase
same,Itonic (pA),GABAARs [11]; DHM 0.1 μM,27.6 ± 1.4 pA
same,mIPSC amplitude (pA),GABAARs [11]; DHM 0.1 μM,30.9 ± 2.9 pA
same,mIPSC area (fC),GABAARs [11]; DHM 0.1 μM,637.1 ± 19.8 fC
same,Decay time,GABAARs [11]; DHM 0.1 μM,7.5 ± 0.5 ms
same,Frequency (HZ),GABAARs [11]; DHM 0.1 μM,14.0 ± 0.6 HZ
same,Rise time,GABAARs [11]; DHM 0.1 μM,2.0 ± 0.2 ms
same,Itonic (pA),GABAARs [11]; DHM 1 μM,44.0 ± 4.1 pA
same,mIPSC amplitude (pA),GABAARs [11]; DHM 1 μM,32.7 ± 2.6 pA
same,mIPSC area (fC),GABAARs [11]; DHM 1 μM,715.7 ± 26.2 fC
same,Decay time,GABAARs [11]; DHM 1 μM,8.6 ± 0.5 ms
same,Frequency (HZ),GABAARs [11]; DHM 1 μM,15.0 ± 0.6 HZ
same,Rise time,GABAARs [11]; DHM 1 μM,2.1 ± 0.2 ms
same,EtOH-potentiated Itonic,GABAARs [11]; [18],21.0 ± 0.9 pA
same,EtOH-potentiated mIPSCs (area),GABAARs [11]; [18],0.70 ± 0.02 nC
same,Itonic (pA),GABAARs [11]; DHM 10 μM,53.8 ± 2.9 pA
same,mIPSC amplitude (pA),GABAARs [11]; DHM 10 μM,36.1 ± 2.4 pA
same,mIPSC area (fC),GABAARs [11]; DHM 10 μM,965.7 ± 30.9 fC
same,Decay time,GABAARs [11]; DHM 10 μM,9.6 ± 0.8 ms
same,Frequency (HZ),GABAARs [11]; DHM 10 μM,15.9 ± 1.0 HZ
same,Rise time,GABAARs [11]; DHM 10 μM,2.4 ± 0.3 ms
same,Itonic (pA),GABAARs [11]; DHM 30 μM,54.0 ± 3.4 pA
same,mIPSC amplitude (pA),GABAARs [11]; DHM 30 μM,35.8 ± 3.0 pA
same,mIPSC area (fC),GABAARs [11]; DHM 30 μM,956.7 ± 22.6 fC
same,Decay time,GABAARs [11]; DHM 30 μM,10.1 ± 0.8 ms
same,Frequency (HZ),GABAARs [11]; DHM 30 μM,16.1 ± 1.7 HZ
same,Rise time,GABAARs [11]; DHM 30 μM,2.4 ± 0.2 ms
same,Effect on EtOH (60 mM) potentiation of Itonic and mIPSCs,GABAARs [11]; DHM 0.3 and 1.0 μM,concentration-dependently antagonized
CCO [EtOH],Total α4 protein level,"GABAAR α4 subunit [1]; hippocampus 48 hr after EtOH 3 g/kg i.p. (E/W), compared to V/W-group",184.0 ± 26.0%
same,EtOH consumption,rats [3]; beginning of the 4th week,7.4 ± 0.6 g/kg/day
same,EtOH consumption,rats [3]; end of the 2nd week,3.9 ± 1.4 g/kg/day
same,PTZ-induced seizure duration,rats [4]; 48 hr withdrawal after EtOH 3 g/kg i.p. (E/W),6.5 ± 1.1 min
same,Acute EtOH-induced LORR (tolerance),rats [6]; 48 hr withdrawal after single EtOH 3 g/kg i.p. (E/W),10.8 ± 3.8 min
same,LORR duration,rats [6]; EtOH 3 g/kg i.p. alone (E3),73.6 ± 8.0 min and 69.0 ± 11.3 min
same,LORR onset,rats [6]; EtOH 3 g/kg i.p. alone (E3),1.8 ± 0.2 min
same,LORR duration,rats [6]; EtOH 4 g/kg i.p. alone (E4),112.8 ± 8.0 min
same,Additional LORR after the 30 min time point,"rats [6]; EtOH, saline injected 30 min after EtOH",42 ± 9.1 min
same,mIPSC area before acute EtOH,"GABAARs [7]; DGCs of E/W-group rats (EtOH 5 g/kg gavage, 48 hr withdrawal)",0.70 ± 0.03 nC
same,Decay time,GABAARs [7]; [19],4.0 ± 0.4 ms
same,Frequency (HZ),GABAARs [7]; [19],11.4 ± 0.8 HZ
same,Rise time,GABAARs [7]; [19],0.8 ± 0.3 ms
same,Itonic (pA),GABAARs [7]; [19],13.0 ± 1.0 pA
same,mIPSC amplitude (pA),GABAARs [7]; [19],38.3 ± 3.3 pA
same,mIPSC area (fC),GABAARs [7]; [19],698.0 ± 33.7 fC
same,mIPSC area with acute EtOH,"GABAARs [7]; bath EtOH 60 mM, DGCs of E/W-group rats (EtOH 5 g/kg gavage, 48 hr withdrawal)",1.4 ± 0.04 nC
same,Itonic with acute EtOH,GABAARs [7]; [20],62.1 ± 3.3 pA
same,mIPSC area with acute EtOH,GABAARs [7]; [20],0.78 ± 0.05 nC
same,Plasma [EtOH],[8]; 30 min after EtOH 3 g/kg i.p. (E3),334.9 ± 37.8 mg/dL
same,Plasma [EtOH],[8]; 60 min after EtOH 3 g/kg i.p. (E3),353.7 ± 35.4 mg/dL
same,Plasma [EtOH] at sampling time points (min) 5,[8]; EtOH 4 g/kg i.p. (E4),365.5 ± 7.7
same,Plasma [EtOH] at sampling time points (min) 30,[8]; EtOH 4 g/kg i.p. (E4),379.5 ± 5.9
same,Plasma [EtOH] at sampling time points (min) 60,[8]; EtOH 4 g/kg i.p. (E4),372.8 ± 5.4
same,Plasma [EtOH] at sampling time points (min) 90,[8]; EtOH 4 g/kg i.p. (E4),361.6 ± 8.2
same,Plasma [EtOH] at sampling time points (min) 180,[8]; EtOH 4 g/kg i.p. (E4),324.6 ± 21.4
same,Plasma [EtOH] at sampling time points (min) 0,"[8]; EtOH 4 g/kg i.p. (E4), 0 = 0 to 3 min",143.3 ± 23.4
same,Time in open and closed arms (EPM),"rats [9]; 48 hr withdrawal after EtOH 3 g/kg i.p. (E/W), vs V/W-group",significantly shorter time in open arms and longer time in closed arms
same,Increase in surface expression of GABAAR α4 protein,"GABAAR α4 subunit [10]; cultured neurons 24 hrs after EtOH 60 mM, 30 min",1.5 fold
same,Itonic,GABAARs [11]; [21],46.9 ± 1.4 pA and 44.8 ± 2.3 pA
same,mIPSCs (area),GABAARs [11]; [21],0.64 ± 0.02 nC and 0.78 ± 0.01 nC
